Experimental data from US20080009418A1, “Selective Inhibitors” (Alchemia LTD., priority 2004, published 2008).

What was measured:
[1] = biological target: T1, Human κ-Opioid (KOP) (Homo sapiens, UniProt P41145); experiment: Radioligand binding, human κ-opioid (KOP) membranes, filtration, [3H]-Diprenorphine; details: compound at 10 μM, [3H]-Diprenorphine
T1 construct: purchased Perkin Elmer Biosignal
Method in brief: (§1)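 Percent inhibition of radioligand binding measured on recombinant human membranes: NK1 with [125I]-Substance P, KOP with [3H]-Diprenorphine. Incubation 1 h at room temperature, then harvest onto 0.3% PEI-soaked filters, cold Tris-HCl pH 7.4 washes and scintillation counting; non-specific binding from reference ligand wells.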

[2] = biological target: T2, Human Melanocortin (MC3) (Homo sapiens, UniProt P41968); experiment: Radioligand binding, human melanocortin MC3 membranes, FlashPlate, [125I]-NDP-αMSH; details: compound at 10 μM, [125I]-NDP-αMSH
T2 construct: purchased Perkin Elmer Biosignal
T2 sequence (P41968 whole entry): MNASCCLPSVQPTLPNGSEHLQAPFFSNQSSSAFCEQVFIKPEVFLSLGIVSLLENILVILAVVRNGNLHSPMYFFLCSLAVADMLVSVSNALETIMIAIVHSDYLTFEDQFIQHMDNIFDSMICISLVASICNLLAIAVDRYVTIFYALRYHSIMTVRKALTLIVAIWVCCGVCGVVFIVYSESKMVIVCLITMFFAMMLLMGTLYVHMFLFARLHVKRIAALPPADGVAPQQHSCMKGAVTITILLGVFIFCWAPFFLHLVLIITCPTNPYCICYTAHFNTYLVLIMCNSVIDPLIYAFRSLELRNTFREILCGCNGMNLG
Method in brief: (§2)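 Cloned human receptor membranes were coated onto FlashPlate wells and incubated with radioligand and compound (added from a 0.5 mM DMSO daughter plate) for 1 hour at room temperature in the dark. Scintillation counting gave percent inhibition, with DMSO defining total and reference ligand defining non-specific binding.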

[3] = biological target: T3, Human melanocortin (MC5) (Homo sapiens, UniProt P33032); experiment: Radioligand binding, human melanocortin MC5 membranes, FlashPlate, [125I]-NDP-αMSH; details: compound at 10 μM, [125I]-NDP-αMSH
T3 construct: purchased Perkin Elmer Biosignal
T3 sequence (P33032 whole entry): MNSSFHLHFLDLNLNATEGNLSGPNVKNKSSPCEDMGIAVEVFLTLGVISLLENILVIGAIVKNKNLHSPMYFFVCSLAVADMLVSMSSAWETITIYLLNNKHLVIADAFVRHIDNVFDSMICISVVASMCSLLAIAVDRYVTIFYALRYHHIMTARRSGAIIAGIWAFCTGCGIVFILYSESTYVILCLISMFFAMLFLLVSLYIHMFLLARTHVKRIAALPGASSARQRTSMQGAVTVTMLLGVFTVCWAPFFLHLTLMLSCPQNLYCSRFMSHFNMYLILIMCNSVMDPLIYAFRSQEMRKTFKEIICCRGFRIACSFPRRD
Method in brief: as §2

[4] = biological target: T4, Human melanin-concentrating hormone (MCH1) (Homo sapiens, UniProt Q99705); experiment: Radioligand binding, human melanin-concentrating hormone MCH1 membranes, FlashPlate, [125I]-S36057; details: compound at 10 μM
T4 construct: purchased Perkin Elmer Biosignal
T4 sequence (Q99705 whole entry): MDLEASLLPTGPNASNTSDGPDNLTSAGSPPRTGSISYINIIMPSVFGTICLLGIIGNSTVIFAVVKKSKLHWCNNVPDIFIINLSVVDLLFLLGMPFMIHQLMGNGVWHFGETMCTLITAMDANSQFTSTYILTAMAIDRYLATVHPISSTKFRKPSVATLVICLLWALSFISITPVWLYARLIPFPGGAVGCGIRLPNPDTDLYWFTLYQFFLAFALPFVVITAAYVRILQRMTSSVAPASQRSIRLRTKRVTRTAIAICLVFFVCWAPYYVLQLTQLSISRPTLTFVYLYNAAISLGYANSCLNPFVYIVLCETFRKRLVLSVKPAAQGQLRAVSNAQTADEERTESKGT
Method in brief: as §2

[5] = biological target: T5, Human δ-opioid (DOP) (Homo sapiens, UniProt P41143); experiment: Radioligand binding, human δ-opioid (DOP) membranes, FlashPlate, [3H]-Bremazocine; details: compound at 10 μM, [3H]-Bremazocine
T5 construct: purchased Perkin Elmer Biosignal
T5 sequence (P41143 whole entry): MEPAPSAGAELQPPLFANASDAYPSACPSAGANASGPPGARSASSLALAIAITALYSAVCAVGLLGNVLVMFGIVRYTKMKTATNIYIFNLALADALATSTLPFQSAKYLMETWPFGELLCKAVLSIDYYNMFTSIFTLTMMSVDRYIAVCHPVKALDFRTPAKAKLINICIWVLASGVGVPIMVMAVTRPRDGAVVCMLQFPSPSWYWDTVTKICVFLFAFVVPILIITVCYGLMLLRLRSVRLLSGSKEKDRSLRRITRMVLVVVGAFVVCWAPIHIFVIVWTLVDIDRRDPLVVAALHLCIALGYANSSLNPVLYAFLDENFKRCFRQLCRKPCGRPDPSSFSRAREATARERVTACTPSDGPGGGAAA
Method in brief: as §2

[6] = biological target: T6, Human Melanocortin (MC4) (Homo sapiens, UniProt P32245); experiment: Radioligand binding, human melanocortin MC4 membranes, FlashPlate, [125I]-NDP-αMSH; details: compound at 10 μM, [125I]-NDP-αMSH
T6 construct: purchased Perkin Elmer Biosignal
T6 sequence (P32245 whole entry): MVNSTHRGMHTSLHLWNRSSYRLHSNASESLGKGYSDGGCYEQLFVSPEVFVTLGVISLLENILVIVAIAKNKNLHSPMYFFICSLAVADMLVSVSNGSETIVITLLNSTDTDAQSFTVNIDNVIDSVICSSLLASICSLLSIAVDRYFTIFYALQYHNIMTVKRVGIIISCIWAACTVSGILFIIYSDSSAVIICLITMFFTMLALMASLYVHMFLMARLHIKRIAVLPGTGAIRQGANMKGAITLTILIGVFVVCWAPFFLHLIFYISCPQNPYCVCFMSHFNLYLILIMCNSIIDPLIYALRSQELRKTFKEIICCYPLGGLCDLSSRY
Method in brief: as §2

[7] = biological target: T7, Human neurokinin (NK1) (Homo sapiens, UniProt P25103); experiment: Radioligand binding, human neurokinin NK1 membranes, filtration, [125I]-Substance P; details: compound at 10 μM, [125I]-Substance P
T7 construct: purchased Perkin Elmer Biosignal
T7 sequence (P25103 whole entry): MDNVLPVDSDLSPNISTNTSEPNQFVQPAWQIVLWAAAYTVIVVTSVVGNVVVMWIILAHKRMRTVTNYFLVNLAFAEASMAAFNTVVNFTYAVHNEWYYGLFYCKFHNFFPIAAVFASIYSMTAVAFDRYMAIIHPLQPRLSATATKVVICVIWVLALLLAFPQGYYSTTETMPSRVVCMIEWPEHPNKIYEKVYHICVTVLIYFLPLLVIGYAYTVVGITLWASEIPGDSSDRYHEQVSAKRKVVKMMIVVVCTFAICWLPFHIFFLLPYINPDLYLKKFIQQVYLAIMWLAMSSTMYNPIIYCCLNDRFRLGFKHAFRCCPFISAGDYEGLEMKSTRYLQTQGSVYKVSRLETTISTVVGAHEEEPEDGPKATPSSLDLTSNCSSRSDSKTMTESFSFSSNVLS
Method in brief: as §1

[8] = biological target: T8, Human μ-opioid (MOP) (Homo sapiens, UniProt P35372); experiment: Radioligand binding, human μ-opioid (MOP) membranes, FlashPlate, [3H]-Naloxone; details: compound at 10 μM, [3H]-Naloxone
T8 construct: purchased Perkin Elmer Biosignal
T8 sequence (P35372 whole entry): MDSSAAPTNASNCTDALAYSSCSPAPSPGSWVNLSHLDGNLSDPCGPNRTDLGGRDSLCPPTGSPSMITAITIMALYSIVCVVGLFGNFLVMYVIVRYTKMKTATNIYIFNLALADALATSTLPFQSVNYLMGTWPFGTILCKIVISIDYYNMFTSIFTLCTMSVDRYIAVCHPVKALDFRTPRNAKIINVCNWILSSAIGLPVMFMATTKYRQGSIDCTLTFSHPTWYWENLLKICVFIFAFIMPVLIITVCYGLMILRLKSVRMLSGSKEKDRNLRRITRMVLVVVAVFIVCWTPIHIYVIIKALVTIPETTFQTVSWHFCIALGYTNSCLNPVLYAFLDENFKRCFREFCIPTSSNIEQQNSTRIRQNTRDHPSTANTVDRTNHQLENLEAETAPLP
Method in brief: as §2

[9] = biological target: T9, Mouse urotensin (mUR2) (Mus musculus, UniProt Q8VIH9); experiment: Radioligand binding, mouse urotensin mUR2 membranes, FlashPlate, [125I]-Urotensin II; details: compound at 10 μM, [125I]-Urotensin II
T9 construct: purchased Perkin Elmer Biosignal
T9 sequence (Q8VIH9 1-385): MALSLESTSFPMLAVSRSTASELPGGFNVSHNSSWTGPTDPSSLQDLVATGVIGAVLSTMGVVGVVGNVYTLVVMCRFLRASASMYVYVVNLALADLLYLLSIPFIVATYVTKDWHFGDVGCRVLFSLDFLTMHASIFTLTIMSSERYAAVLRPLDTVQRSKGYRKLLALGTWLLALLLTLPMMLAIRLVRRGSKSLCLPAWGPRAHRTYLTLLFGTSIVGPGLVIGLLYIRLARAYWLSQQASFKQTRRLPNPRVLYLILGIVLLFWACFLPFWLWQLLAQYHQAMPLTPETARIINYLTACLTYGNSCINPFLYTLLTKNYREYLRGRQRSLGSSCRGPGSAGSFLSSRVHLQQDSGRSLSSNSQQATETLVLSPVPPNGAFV
Method in brief: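 Cloned mouse urotensin (mUR2) receptor membranes from Perkin Elmer Biosignal were immobilized in FlashPlate microplates using a proprietary coating. Each well got 19.5 μl buffer, then 0.5 μl of DMSO, reference ligand, or compound. Adding 5 μl of [125I]-Urotensin II, diluted to 5× final concentration in binding buffer, started binding. Plates were sealed with TopSeal-A and incubated 1 hour at room temperature in the dark. Wells were counted for 30 seconds each on a TopCount after a 60-second delay, and percentage inhibition was calculated.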

[10] = biological target: T10, Human opioid (ORL1) (Homo sapiens, UniProt P41146); experiment: Radioligand binding, human opioid ORL1 membranes, FlashPlate, [125I]-Nociceptin; details: compound at 10 μM, [125I]-Nociceptin
T10 construct: purchased Perkin Elmer Biosignal
T10 sequence (P41146 whole entry): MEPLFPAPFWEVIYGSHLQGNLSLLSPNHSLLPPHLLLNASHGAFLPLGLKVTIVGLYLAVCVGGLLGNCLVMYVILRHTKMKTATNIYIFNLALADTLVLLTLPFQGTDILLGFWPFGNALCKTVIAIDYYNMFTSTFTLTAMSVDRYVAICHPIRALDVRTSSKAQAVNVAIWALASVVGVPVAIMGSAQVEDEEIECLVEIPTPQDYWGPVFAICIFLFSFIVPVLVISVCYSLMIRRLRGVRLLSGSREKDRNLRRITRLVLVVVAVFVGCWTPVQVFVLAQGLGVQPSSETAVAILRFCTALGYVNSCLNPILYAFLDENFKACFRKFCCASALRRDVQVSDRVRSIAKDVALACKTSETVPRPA
Method in brief: as §2

[11] = biological target: T11, Human neuropeptide Y (NPY-Y1) (Homo sapiens, UniProt P25929); experiment: Radioligand binding, human neuropeptide Y NPY-Y1 membranes, FlashPlate, [125I]-PYY; details: compound at 10 μM, [125I]-PYY
T11 construct: purchased Perkin Elmer Biosignal
T11 sequence (P25929 1-384): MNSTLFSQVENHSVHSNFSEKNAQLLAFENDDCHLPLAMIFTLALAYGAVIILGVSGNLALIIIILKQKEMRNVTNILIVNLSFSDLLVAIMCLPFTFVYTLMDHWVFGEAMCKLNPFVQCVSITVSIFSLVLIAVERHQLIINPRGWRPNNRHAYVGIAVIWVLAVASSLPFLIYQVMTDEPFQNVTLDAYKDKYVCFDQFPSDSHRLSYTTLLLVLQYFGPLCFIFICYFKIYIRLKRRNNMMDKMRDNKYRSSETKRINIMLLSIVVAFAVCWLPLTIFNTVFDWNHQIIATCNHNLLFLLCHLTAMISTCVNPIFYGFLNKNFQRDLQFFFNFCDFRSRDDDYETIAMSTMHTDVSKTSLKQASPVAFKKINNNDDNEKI
Method in brief: as §2

T1 sequence (P41145 whole entry): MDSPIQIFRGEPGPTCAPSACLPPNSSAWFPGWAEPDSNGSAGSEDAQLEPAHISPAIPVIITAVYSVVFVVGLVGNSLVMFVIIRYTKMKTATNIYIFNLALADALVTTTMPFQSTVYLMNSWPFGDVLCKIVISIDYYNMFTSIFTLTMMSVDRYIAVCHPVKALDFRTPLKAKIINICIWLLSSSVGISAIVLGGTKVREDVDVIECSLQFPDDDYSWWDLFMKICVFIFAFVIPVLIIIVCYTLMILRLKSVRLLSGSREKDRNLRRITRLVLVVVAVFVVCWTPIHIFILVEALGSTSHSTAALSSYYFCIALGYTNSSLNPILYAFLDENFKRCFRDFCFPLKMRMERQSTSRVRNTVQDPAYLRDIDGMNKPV

NCCC(=O)NC1C(OCc2ccccc2)OC(COCc2ccc3ccccc3c2)C(O)C1OCc1ccccc1 (stereo not shown) [compound 369]
A2: inhibition of radioligand binding, human κ-opioid (KOP) [1]: − (“−” indicates less than 50% inhibition at 10 μM)
A3: inhibition of radioligand binding, human melanocortin (MC3) [2]: − (“−” indicates less than 50% inhibition at 10 μM)
A5: inhibition of radioligand binding, human melanocortin (MC5) [3]: − (“−” indicates less than 50% inhibition at 10 μM)
A6: inhibition of radioligand binding, human melanin-concentrating hormone (MCH1) ([4]; [125I]-S36057): − (“−” indicates less than 50% inhibition at 10 μM)
A1: inhibition of radioligand binding, human δ-opioid (DOP) [5]: − (“−” indicates less than 50% inhibition at 10 μM)
A4: inhibition of radioligand binding, human melanocortin (MC4) [6]: + (“+” indicates greater than 50% inhibition at 10 μM)
A8: inhibition of radioligand binding, human neurokinin (NK1) [7]: + (“+” indicates greater than 50% inhibition at 10 μM)
A7: inhibition of radioligand binding, human μ-opioid (MOP) [8]: − (“−” indicates less than 50% inhibition at 10 μM)
A11: inhibition of radioligand binding, mouse urotensin (mUR2) [9]: − (“−” indicates less than 50% inhibition at 10 μM)
A10: inhibition of radioligand binding, human opioid (ORL1) [10]: − (“−” indicates less than 50% inhibition at 10 μM)
A9: inhibition of radioligand binding, human neuropeptide Y (NPY-Y1) [11]: − (“−” indicates less than 50% inhibition at 10 μM)

NCCC(=O)NC1C(OCc2ccc3ccccc3c2)OC(COCc2ccc(Cl)cc2)C(O)C1OCc1ccccc1 (stereo not shown) [compound 389]
A2: inhibition of radioligand binding ([1]; human KOP membranes): − (“−” indicates less than 50% inhibition at 10 μM)
A3: inhibition of radioligand binding ([2]; human MC3 membranes, 10 µM): + (“+” indicates greater than 50% inhibition at 10 μM)
A5: inhibition of radioligand binding ([3]; human MC5 membranes): + (“+” indicates greater than 50% inhibition at 10 μM)
A6: inhibition of radioligand binding ([4]; [125I]-S36057, human MCH1 membranes, 10 µM): − (“−” indicates less than 50% inhibition at 10 μM)
A1: inhibition of radioligand binding ([5]; human DOP membranes): − (“−” indicates less than 50% inhibition at 10 μM)
A4: inhibition of radioligand binding ([6]; human MC4 membranes): + (“+” indicates greater than 50% inhibition at 10 μM)
A8: inhibition of radioligand binding ([7]; human NK1 membranes): + (“+” indicates greater than 50% inhibition at 10 μM)
A7: inhibition of radioligand binding ([8]; human MOP membranes): − (“−” indicates less than 50% inhibition at 10 μM)
A11: inhibition of radioligand binding ([9]; mouse mUR2 membranes): − (“−” indicates less than 50% inhibition at 10 μM)
A10: inhibition of radioligand binding ([10]; human ORL1 membranes, 10 µM): + (“+” indicates greater than 50% inhibition at 10 μM)
A9: inhibition of radioligand binding ([11]; human NPY-Y1 membranes): − (“−” indicates less than 50% inhibition at 10 μM)

N=C(N)NCC(=O)NC1COC(COCc2ccc3ccccc3c2)C(O)C1OCc1ccc(Cl)cc1 (stereo not shown) [compound 540]
A2: inhibition of radioligand binding, human κ-opioid (KOP) [1]: − (“−” indicates less than 50% inhibition at 10 μM)
A3: inhibition of radioligand binding, human melanocortin (MC3) [2]: − (“−” indicates less than 50% inhibition at 10 μM)
A5: inhibition of radioligand binding, human melanocortin (MC5) [3]: − (“−” indicates less than 50% inhibition at 10 μM)
A6: inhibition of radioligand binding, human melanin-concentrating hormone (MCH1) ([4]; [125I]-S36057): − (“−” indicates less than 50% inhibition at 10 μM)
A1: inhibition of radioligand binding, human δ-opioid (DOP) [5]: − (“−” indicates less than 50% inhibition at 10 μM)
A4: inhibition of radioligand binding, human melanocortin (MC4) [6]: + (“+” indicates greater than 50% inhibition at 10 μM)
A8: inhibition of radioligand binding, human neurokinin (NK1) [7]: + (“+” indicates greater than 50% inhibition at 10 μM)
A7: inhibition of radioligand binding, human μ-opioid (MOP) [8]: − (“−” indicates less than 50% inhibition at 10 μM)
A11: inhibition of radioligand binding, mouse urotensin (mUR2) [9]: − (“−” indicates less than 50% inhibition at 10 μM)
A10: inhibition of radioligand binding, human opioid (ORL1) [10]: − (“−” indicates less than 50% inhibition at 10 μM)
A9: inhibition of radioligand binding, human neuropeptide Y (NPY-Y1) [11]: − (“−” indicates less than 50% inhibition at 10 μM)

[N-]=[N+]=N[C@H]1C(OCCNC(=N)N)O[C@H](COCc2ccc3ccccc3c2)[C@@H](O)[C@@H]1OCc1ccccc1 (stereo partly shown) [compound 126]
A2 radioligand binding, percentage inhibition [1]: − (“−” indicates less than 50% inhibition at 10 μM)
A3 radioligand binding, percentage inhibition [2]: − (“−” indicates less than 50% inhibition at 10 μM)
A5 radioligand binding, percentage inhibition [3]: + (“+” indicates greater than 50% inhibition at 10 μM)
A6 radioligand binding, percentage inhibition ([4]; [125I]-S36057): + (“+” indicates greater than 50% inhibition at 10 μM)
A1 radioligand binding, percentage inhibition [5]: − (“−” indicates less than 50% inhibition at 10 μM)
A4 radioligand binding, percentage inhibition [6]: + (“+” indicates greater than 50% inhibition at 10 μM)
A8 radioligand binding, percentage inhibition [7]: + (“+” indicates greater than 50% inhibition at 10 μM)
A7 radioligand binding, percentage inhibition [8]: − (“−” indicates less than 50% inhibition at 10 μM)
A11 radioligand binding, percentage inhibition [9]: − (“−” indicates less than 50% inhibition at 10 μM)
A10 radioligand binding, percentage inhibition [10]: − (“−” indicates less than 50% inhibition at 10 μM)
A9 radioligand binding, percentage inhibition [11]: − (“−” indicates less than 50% inhibition at 10 μM)

COCC1OC(OCc2ccc(Cl)cc2)C(NC(=O)CNC(=N)N)C(OCc2ccc3ccccc3c2)C1O (stereo not shown) [compound 209]
A2: inhibition of radioligand binding ([1]; filtration): − (“−” indicates less than 50% inhibition at 10 μM)
A3: inhibition of radioligand binding ([2]; FlashPlate): + (“+” indicates greater than 50% inhibition at 10 μM)
A5: inhibition of radioligand binding ([3]; FlashPlate): + (“+” indicates greater than 50% inhibition at 10 μM)
A6: inhibition of radioligand binding ([4]; [125I]-S36057, FlashPlate): − (“−” indicates less than 50% inhibition at 10 μM)
A1: inhibition of radioligand binding ([5]; FlashPlate): − (“−” indicates less than 50% inhibition at 10 μM)
A4: inhibition of radioligand binding ([6]; FlashPlate): + (“+” indicates greater than 50% inhibition at 10 μM)
A8: inhibition of radioligand binding ([7]; filtration): + (“+” indicates greater than 50% inhibition at 10 μM)
A7: inhibition of radioligand binding ([8]; FlashPlate): − (“−” indicates less than 50% inhibition at 10 μM)
A11: inhibition of radioligand binding ([9]; FlashPlate): − (“−” indicates less than 50% inhibition at 10 μM)
A10: inhibition of radioligand binding ([10]; FlashPlate): − (“−” indicates less than 50% inhibition at 10 μM)
A9: inhibition of radioligand binding ([11]; FlashPlate): − (“−” indicates less than 50% inhibition at 10 μM)
